Measurements from US20240376085A1 (Janssen Pharmaceutica NV, priority 2021, published 2024).

Columns and labels:
IL-17A : IL-17RA binding = biological target: T1, IL-17A : IL-17RA binding (Homo sapiens, UniProt Q16552, K93Q); test: IL-17A(FLAG-tagged):IL-17RA(His-tagged) binding disruption Eu-HTRF assay, Protocol 1; details: FLAG-IL-17A 2.5 nM at 2x final concentration; average if tested more than once
T1 construct: Name: IL-17A-Flag
Procedure, shortened: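 IC50 came from a one-site competition fit of the acceptor/donor (665/620 nm) HTRF ratio. His-tagged IL-17RA, Eu-anti-FLAG and D2-anti-His were added after a 1 h rt compound preincubation with FLAG-tagged IL-17A dimer in PBS/0.01% Triton X-100, followed by 2 h at rt before reading.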

[1] = tested on: IL-17A-induced G-CSF production in human normal keratinocyte (NHK); test: NHK assay: IL-17A-induced G-CSF production in normal human keratinocytes; assay type: cell-based; details: 24 h, IL-17A 5 ng/mL, average if tested more than once
Procedure, shortened: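 Compound titrations are first mixed with recombinant human IL-17A for 1 h at room temperature. The mixture goes onto adult normal human keratinocytes (final IL-17A 5 ng/mL, 5% FBS, 0.2% DMSO) for 24 h at 37 °C. Secreted G-CSF is then measured by HTRF and IC50 fitted.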

T1 sequence (Q16552 with tags, fused parts or gaps K93Q): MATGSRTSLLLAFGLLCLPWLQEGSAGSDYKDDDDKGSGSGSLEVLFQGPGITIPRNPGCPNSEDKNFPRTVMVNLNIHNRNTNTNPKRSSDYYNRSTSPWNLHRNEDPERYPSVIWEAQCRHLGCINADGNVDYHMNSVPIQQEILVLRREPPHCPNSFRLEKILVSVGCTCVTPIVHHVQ

| SMILES | IC50 (IL-17A : IL-17RA binding) | IC50 ([1]; Homo sapiens, Keratinocyte) | IC50 [1] |
| --- | --- | --- | --- |
| Cc1nonc1C(=O)N[C@@H](CC1(C(F)(F)F)CC1)c1nc2ccc([C@H](NC(=O)CC3CC(F)(F)C3)C3CC3)cc2[nH]1 [Example 242, N—((S)-1-(6-((R)-Cyclopropyl(2-(3,3-difluorocyclobutyl)acetamido)methyl)-1H-benzo[d]imidazol-2-yl)-2-(1-(trifluoromethyl)cyclopropyl)ethyl)-4-methyl-1,2,5-oxadiazole-3-carboxamide] | > 100 nM | > 100 nM |  |
| CC(C)n1nccc1C(=O)N[C@@H](COC(C)C(F)(F)F)c1nc2ccc([C@H](NC(=O)CC3CC(F)(F)C3)C3CC3)cc2[nH]1 (relative stereo) [Example 156, N—((R*)-1-(6-((R)-Cyclopropyl(2-(3,3-difluorocyclobutyl)acetamido)methyl)-1H-benzo[d]imidazol-2-yl)-2-(((R)-1,1,1-trifluoropropan-2-yl)oxy)ethyl)-1-isopropyl-1H-pyrazole-5-carboxamide] | 50 to 100 nM | 50 to 100 nM |  |
| CC(C)n1nccc1C(=O)N[C@H](c1nc2ccc([C@H](NC(=O)CC3CC(F)(F)C3)C3CC3)cc2[nH]1)[C@@H]1C[C@@H]2[C@H](C1)C2(F)F [Example 238, N—((S)-(6-((R)-Cyclopropyl(2-(3,3-difluorocyclobutyl)acetamido)methyl)-1H-benzo[d]imidazol-2-yl)((1R,3s,5S)-6,6-difluorobicyclo[3.1.0]hexan-3-yl)methyl)-1-isopropyl-1H-pyrazole-5-carboxamide] | < 50 nM | < 50 nM |  |
| Cc1c(C(=O)N[C@H](c2nc3cc([C@@H](C)NC(=O)CCC(F)(F)F)ccc3[nH]2)C2CCC(F)(F)CC2)cnn1CC(F)(F)F [Example 18, N—[(S)-(4,4-Difluorocyclohexyl)-[6-[(1R)-1-(4,4,4-trifluorobutanoylamino)ethyl]-1H-benzimidazol-2-yl]methyl]-5-methyl-1-(2,2,2-trifluoroethyl)pyrazole-4-carboxamide] | > 100 nM | > 100 nM |  |
| CCn1nccc1C(=O)N[C@H](c1nc2cc([C@@H](C)NC(=O)CC(C(F)(F)F)C(F)(F)F)ccc2[nH]1)C1CCC(F)(F)CC1 [Example 127, N—((S)-(4,4-Difluorocyclohexyl)(5-((R)-1-(4,4,4-trifluoro-3-(trifluoromethyl)butanamido)ethyl)-1H-benzo[d]imidazol-2-yl)methyl)-1-ethyl-1H-pyrazole-5-carboxamide] | 50 to 100 nM | < 50 nM |  |
| C[C@@H](NC(=O)CCC(F)(F)F)c1ccc2[nH]c([C@@H](NC(=O)c3cnnn3CCOC(F)(F)F)C3CCC(F)(F)CC3)nc2c1 [Example 36, N—[(S)-(4,4-Difluorocyclohexyl)-[6-[(1R)-1-(4,4,4-trifluorobutanoylamino)ethyl]-1H-benzimidazol-2-yl]methyl]-3-[2-(trifluoromethoxy)ethyl]triazole-4-carboxamide] | > 100 nM | 50 to 100 nM |  |
| CC(C)n1nccc1C(=O)NC(COC(C)(C)C(F)(F)F)c1nc2ccc([C@H](NC(=O)CC3CC(F)(F)C3)C3CC3)cc2[nH]1 (single isomer, unassigned) [Example 162, N—((S*)-1-(6-((R)-Cyclopropyl(2-(3,3-difluorocyclobutyl)acetamido)methyl)-1H-benzo[d]imidazol-2-yl)-2-((1,1,1-trifluoro-2-methylpropan-2-yl)oxy)ethyl)-1-isopropyl-1H-pyrazole-5-carboxamide] | > 100 nM | > 100 nM |  |
| C[C@@H](NC(=O)CCC(F)(F)F)c1ccc2nc([C@@H](NC(=O)c3cnn(CC4CC4)c3)C3CCC(F)(F)CC3)[nH]c2c1 [Example 61, 1-(Cyclopropylmethyl)-N—((S)-(4,4-difluorocyclohexyl)(6-((R)-1-(4,4,4-trifluorobutanamido)ethyl)-1H-benzo[d]imidazol-2-yl)methyl)-1H-pyrazole-4-carboxamide] | > 100 nM | > 100 nM |  |

Now from value to compound, other results behind:

| IC50 (IL-17A : IL-17RA binding) | SMILES | IC50 ([1]; Homo sapiens, Keratinocyte) | IC50 [1] |
| --- | --- | --- | --- |
| > 100 nM | CC(C)CCn1ncc(C(=O)N[C@H](c2nc3cc([C@@H](C)NC(=O)CCC(F)(F)F)ccc3[nH]2)C2CCC(F)(F)CC2)c1C(C)C [Example 11, N—[(S)-(4,4-Difluorocyclohexyl)-[6-[(1R)-1-(4,4,4-trifluorobutanoylamino)ethyl]-1H-benzimidazol-2-yl]methyl]-1-isopentyl-5-isopropyl-pyrazole-4-carboxamide] | > 100 nM |  |
| > 100 nM | CC(C)CC(NC(=O)CCC(F)(F)F)c1ccc2[nH]c([C@@H](NC(=O)c3ccnn3C)C3CCC(F)(F)CC3)nc2c1 (single isomer, unassigned) [Example 48, N—((S)-(4,4-Difluorocyclohexyl)(5-((S*)-3-methyl-1-(4,4,4-trifluorobutanamido)butyl)-1H-benzo[d]imidazol-2-yl)methyl)-1-methyl-1H-pyrazole-5-carboxamide] | > 100 nM |  |
| > 100 nM | C[C@@H](NC(=O)CCC(F)(F)F)c1ccc2[nH]c([C@@H](NC(=O)C3(F)CC3)C3CCC(F)(F)CC3)nc2c1 [Example 96, N—((S)-(4,4-Difluorocyclohexyl)(5-((R)-1-(4,4,4-trifluorobutanamido)ethyl)-1H-benzo[d]imidazol-2-yl)methyl)-1-fluorocyclopropane-1-carboxamide] | > 100 nM |  |
| > 100 nM | CC(Cn1nncc1C(=O)N[C@H](c1nc2ccc([C@@H](C)NC(=O)CCC(F)(F)F)cc2[nH]1)C1CCC(F)(F)CC1)C(F)(F)F (single isomer, unassigned) [Example 71, N—((S)-(4,4-Difluorocyclohexyl)(6-((R)-1-(4,4,4-trifluorobutanamido)ethyl)-1H-benzo[d]imidazol-2-yl)methyl)-1-((R*)-3,3,3-trifluoro-2-methylpropyl)-1H-1,2,3-triazole-5-carboxamide] | > 100 nM |  |
| < 50 nM | [2H]C([2H])([2H])C([2H])([2H])n1nccc1C(=O)N[C@@H](COC(C)(C)C(F)(F)F)c1nc2ccc([C@H](NC(=O)CC3CC(F)(F)C3)C3CC3)cc2[nH]1 [Example 76, N—((R)-1-(6-((R)-Cyclopropyl(2-(3,3-difluorocyclobutyl)acetamido)methyl)-1H-benzo[d]imidazol-2-yl)-2-((1,1,1-trifluoro-2-methylpropan-2-yl)oxy)ethyl)-1-(ethyl-d5)-1H-pyrazole-5-carboxamide] | < 50 nM |  |
| > 100 nM | C[C@@H](NC(=O)CCC(F)(F)F)c1ccc2[nH]c([C@@H](NC(=O)c3cn(CC4CC4)nn3)C3CCC(F)(F)CC3)nc2c1 [Example 10, 1-(Cyclopropylmethyl)-N—[(S)-(4,4-difluorocyclohexyl)-[6-[(1R)-1-(4,4,4-trifluorobutanoylamino)ethyl]-1H-benzimidazol-2-yl]methyl]triazole-4-carboxamide] | > 100 nM |  |
| < 50 nM | C[C@@H](OC[C@H](NC(=O)c1nonc1C1CC1)c1nc2ccc([C@H](NC(=O)CC3CC(F)(F)C3)C3CC3)cc2[nH]1)C(F)(F)F (relative stereo) [Example 155, 4-Cyclopropyl-N—((R*)-1-(6-((R)-cyclopropyl(2-(3,3-difluorocyclobutyl)acetamido)methyl)-1H-benzo[d]imidazol-2-yl)-2-(((R)-1,1,1-trifluoropropan-2-yl)oxy)ethyl)-1,2,5-oxadiazole-3-carboxamide] | > 100 nM |  |
| > 100 nM | C[C@@H](NC(=O)CCC(F)(F)F)c1ccc2[nH]c([C@@H](NC(=O)C34CC(C3)C4)C3CCC(F)(F)CC3)nc2c1 [Example 112, N—((S)-(4,4-Difluorocyclohexyl)(5-((R)-1-(4,4,4-trifluorobutanamido)ethyl)-1H-benzo[d]imidazol-2-yl)methyl)bicyclo[1.1.1]pentane-1-carboxamide] | > 100 nM |  |
| > 100 nM | C[C@@H](NC(=O)CCC(F)(F)F)c1ccc2[nH]c([C@@H](NC(=O)[C@@H]3CC[C@@H]3CF)C3CCC(F)(F)CC3)nc2c1 (single isomer, unassigned) [Example 113] | > 100 nM |  |
| > 100 nM | C[C@@H](NC(=O)CCC(F)(F)F)c1ccc2[nH]c([C@@H](NC(=O)c3cnn(CC(F)F)n3)C3CCC(F)(F)CC3)nc2c1 [Example 37, N—[(S)-(4,4-Difluorocyclohexyl)-[6-[(1R)-1-(4,4,4-trifluorobutanoylamino)ethyl]-1H-benzimidazol-2-yl]methyl]-2-(2,2-difluoroethyl)triazole-4-carboxamide] | > 100 nM |  |
| > 100 nM | CC(C)C(NC(=O)CCC(F)(F)F)c1ccc2[nH]c([C@@H](NC(=O)c3ccnn3C)C3CCC(F)(F)CC3)nc2c1 (single isomer, unassigned) [Example 45, N—((S)-(4,4-Difluorocyclohexyl)(5-((R*)-2-methyl-1-(4,4,4-trifluorobutanamido)propyl)-1H-benzo[d]imidazol-2-yl)methyl)-1-methyl-1H-pyrazole-5-carboxamide] |  | 50 to 100 nM |
| > 100 nM | CC(C)CC(NC(=O)CCC(F)(F)F)c1ccc2[nH]c([C@@H](NC(=O)c3ccnn3C)C3CCC(F)(F)CC3)nc2c1 (single isomer, unassigned) [Example 49, N—((S)-(4,4-Difluorocyclohexyl)(5-((R*)-3-methyl-1-(4,4,4-trifluorobutanamido)butyl)-1H-benzo[d]imidazol-2-yl)methyl)-1-methyl-1H-pyrazole-5-carboxamide] |  | < 50 nM |
